{
  "source": "patent US20240351985A1",
  "about": "“NOVEL COMPOUND AND USE OF SAID COMPOUND” (APHEA.BIO NV, priority 2021, published 2024)",
  "key": {"F. graminearum spores": {"system": "F. graminearum spores", "assay_type": "cell-based, Fusarium graminearum", "conditions": "for Halo Diameter / Opacity Grade: 24 hours"}, "[1]": {"system": "Fusarium graminearum, Puccinia striiformis and Zymoseptoria tritici", "assay": "organism not typed", "assay_type": "cell-based"}, "Puccinia striiformis": {"system": "Puccinia striiformis", "assay": "Dose-response liquid-based assay against spores of Puccinia striiformis", "assay_type": "cell-based", "conditions": "48 h"}, "Fusarium graminearum": {"system": "Fusarium graminearum", "assay": "microbe, parasite or virus in culture", "assay_type": "cell-based", "conditions": "22 h"}, "Zymoseptoria tritici": {"system": "Zymoseptoria tritici", "assay": "microbe, parasite or virus in culture", "assay_type": "cell-based", "conditions": "120 h, incubation 5 d"}, "[2]": {"conditions": "read-out: Fluorescence of resazurin dye (excitation 570 nm, emission 615 nm): AC50 value, Estimation"}, "[3]": {"conditions": "read-out: Fluorescence of resazurin dye (excitation 570 nm, emission 615 nm): AC50 value, Range"}, "[4]": {"conditions": "read-out: Absorbance (600 nm): AC50 value, Estimation"}, "[5]": {"conditions": "read-out: Absorbance (600 nm): AC50 value, Range"}},
  "note": "Values joined by “and” are separate entries in the source; they are usually repeats but may differ in a detail not shown here. Identical values can stand only once. Like-named read-outs stand apart in the source and are kept apart here.",
  "data": [
    {"smiles": "C[C@@H]1[C@H](O)[C@@H](C)/C=C/C=C/C=C/C=C/C=C/C=C/C=C/[C@H](O[C@@H]2O[C@H](C)[C@@H](O)[C@H](N)[C@@H]2O)C[C@@H]2O[C@](O)(C[C@@H](O)C[C@@H](O)[C@H](O)CC[C@@H](O)C[C@@H](O)CC(=O)O[C@H]1C)C[C@H](O)[C@H]2C(=O)O", "note": "[Amphotericin B, reference compound]", "values": [
      {"measurement": "Halo Diameter", "setting": "F. graminearum spores; 10 μL pipetted, 0.125 mg/mL", "result": 9.3, "unit": "mm"},
      {"measurement": "Opacity Grade", "setting": "F. graminearum spores; 10 μL pipetted, 0.125 mg/mL", "result": "B (‘B’ means 60-80% inhibition of the pathogen)"},
      {"measurement": "Halo Diameter", "setting": "F. graminearum spores; 10 μL pipetted, 0.15625 mg/mL", "result": 7.1, "unit": "mm"},
      {"measurement": "Opacity Grade", "setting": "F. graminearum spores; 10 μL pipetted, 0.15625 mg/mL", "result": "C (‘C’ means 40-60% inhibition of the pathogen)"},
      {"measurement": "Halo Diameter", "setting": "F. graminearum spores; 10 μL pipetted, 0.250 mg/mL", "result": "9.2 mm and 9 mm and 9.3 mm and 8.7 mm"},
      {"measurement": "Opacity Grade", "setting": "F. graminearum spores; 10 μL pipetted, 0.250 mg/mL", "result": "A (‘A’ means 80-100% inhibition of the pathogen)"},
      {"measurement": "Halo Diameter", "setting": "F. graminearum spores; 10 μL pipetted, 0.3125 mg/mL", "result": 7.7, "unit": "mm"},
      {"measurement": "Opacity Grade", "setting": "F. graminearum spores; 10 μL pipetted, 0.3125 mg/mL", "result": "C (‘C’ means 40-60% inhibition of the pathogen)"},
      {"measurement": "Halo Diameter", "setting": "F. graminearum spores; 10 μL pipetted, 0.625 mg/mL", "result": 9.1, "unit": "mm"},
      {"measurement": "Opacity Grade", "setting": "F. graminearum spores; 10 μL pipetted, 0.625 mg/mL", "result": "B (‘B’ means 60-80% inhibition of the pathogen)"}
    ]},
    {"smiles": "C=C/C(C)=C/[C@@H](C)C(=O)CC(CC(CC(N)=O)CC(=O)O)SC", "note": "(stereo partly shown) [C17H27NO4S]", "values": [
      {"measurement": "AC50", "setting": "[1]; read-out: Active concentrations (AC50 ranges) for hyphal growth in the wells", "result": "7.54 to 17.2", "unit": "µg/mL"},
      {"measurement": "AC50", "setting": "[1]; read-out: Active concentrations (AC50 ranges) for metabolic activity", "result": "11.7 to 17.1", "unit": "µg/mL"},
      {"measurement": "AC50", "setting": "Puccinia striiformis; [2]", "result": 12.8, "unit": "µg/mL"},
      {"measurement": "AC50", "setting": "Puccinia striiformis; [3]", "result": "11.7 to 14", "unit": "µg/mL"},
      {"measurement": "AC50", "setting": "Fusarium graminearum; [4]", "result": 8.9, "unit": "µg/mL"},
      {"measurement": "AC50", "setting": "Fusarium graminearum; [5]", "result": "7.54 to 10.5", "unit": "µg/mL"},
      {"measurement": "AC50", "setting": "Fusarium graminearum; [2]", "result": 13.2, "unit": "µg/mL"},
      {"measurement": "AC50", "setting": "Fusarium graminearum; [3]", "result": "11.8 to 14.8", "unit": "µg/mL"},
      {"measurement": "AC50", "setting": "Zymoseptoria tritici; [4]", "result": 16, "unit": "µg/mL"},
      {"measurement": "AC50", "setting": "Zymoseptoria tritici; [5]", "result": "14.9 to 17.2", "unit": "µg/mL"},
      {"measurement": "AC50", "setting": "Zymoseptoria tritici; [2]", "result": 15.9, "unit": "µg/mL"},
      {"measurement": "AC50", "setting": "Zymoseptoria tritici; [3]", "result": "14.8 to 17.1", "unit": "µg/mL"},
      {"measurement": "Halo Diameter", "setting": "F. graminearum spores; 2 μL pipetted, 0.125 mg/mL", "result": "4.4 mm and 4.7 mm and 4.3 mm"},
      {"measurement": "Opacity Grade", "setting": "F. graminearum spores; 2 μL pipetted, 0.125 mg/mL", "result": "E (‘E’ means 0-20% inhibition of the pathogen)"},
      {"measurement": "Halo Diameter", "setting": "F. graminearum spores; 2 μL pipetted, 0.250 mg/mL", "result": "5.5 mm and 5.6 mm"},
      {"measurement": "Opacity Grade", "setting": "F. graminearum spores; 2 μL pipetted, 0.250 mg/mL", "result": "D (‘D’ means 20-40% inhibition of the pathogen)"},
      {"measurement": "Halo Diameter", "setting": "F. graminearum spores; 2 μL pipetted, 0.500 mg/mL", "result": "6.7 mm and 7.2 mm and 7.1 mm"},
      {"measurement": "Opacity Grade", "setting": "F. graminearum spores; 2 μL pipetted, 0.500 mg/mL", "result": "B (‘B’ means 60-80% inhibition of the pathogen)"},
      {"measurement": "Halo Diameter", "setting": "F. graminearum spores; 2 μL pipetted, 1 mg/mL", "result": "8.3 mm and 8.2 mm"},
      {"measurement": "Opacity Grade", "setting": "F. graminearum spores; 2 μL pipetted, 1 mg/mL", "result": "A (‘A’ means 80-100% inhibition of the pathogen)"},
      {"measurement": "Halo Diameter", "setting": "F. graminearum spores; 2 μL pipetted, 2 mg/mL", "result": "9.1 mm and 9.3 mm"},
      {"measurement": "Opacity Grade", "setting": "F. graminearum spores; 2 μL pipetted, 2 mg/mL", "result": "A (‘A’ means 80-100% inhibition of the pathogen)"},
      {"measurement": "Halo Diameter", "setting": "F. graminearum spores; 2 μL pipetted, 4 mg/mL", "result": "9.5 mm and 9.2 mm and 9.6 mm"},
      {"measurement": "Opacity Grade", "setting": "F. graminearum spores; 2 μL pipetted, 4 mg/mL", "result": "A (‘A’ means 80-100% inhibition of the pathogen)"},
      {"measurement": "Halo Diameter", "setting": "F. graminearum spores; 2 μL pipetted, 8 mg/mL", "result": "9.8 mm and 9.2 mm and 9.7 mm"},
      {"measurement": "Opacity Grade", "setting": "F. graminearum spores; 2 μL pipetted, 8 mg/mL", "result": "A (‘A’ means 80-100% inhibition of the pathogen)"},
      {"measurement": "Activity against F. graminearum spores", "setting": "F. graminearum spores; all concentrations tested (8 mg/mL to 125 μg/mL)", "result": "active"}
    ]}
  ]
}
